“And” between values parts separate entries of the source, which are not always exact repeats. Identical values can stand only once.
Assays:
[1] = Phase 2 clinical trial, PK profile of ZP1848 and metabolites in SBS patients; type: in vivo, human; details: for Conc.: plasma
Protocol: A phase 2 clinical trial was conducted to i.a. determine the PK profile of ZP1848 and metabolites in human SBS patients.
The study was designed as a randomized, cross-over and double-blinded with three different doses of ZP1848 (10 mg, 1 mg, 0.1 mg) in 16 SBS patients.
The 18 SBS patients (16 patients completed the study) were randomized evenly and in a double-blinded fashion to each of the six cross-over dose level combinations: 10 mg/1 mg, 10 mg/0.1 mg, 1 mg/10 mg, 1 mg/0.1 mg, 0.1 mg/10 mg, 0.1 mg/1 mg of ZP1848. The patients were injected once daily (QD) subcutaneously with the above doses of ZP1848.
Blood samples for PK analysis were collected on several study visits throughout the study period: the study comprised a 1st baseline balance study (4 days), a 1st treatment period (21 days) including a 1st treatment balance study (last 4 days of 1st treatment period), followed by a wash-out period (at least 4 weeks); and a 2nd baseline balance study (4 days), a 2nd treatment period (21 days) including a 2nd treatment balance study (last 4 days of 2nd treatment period) and a follow-up period (at least 4 weeks).
PK sampling was performed at visit 11 (1st treatment, balance study) and visit 17 (second day of 2nd baseline study - after a wash out period), and again at visit 25 (2nd treatment balance study) and at visit 29 (last day of follow-up period).
At day visit 11 and visit 25 a full PK profile in steady state was investigated. PK samples were taken prior to injection of ZP1848, and at the following time points (+/- 10 minutes) after trial product administration: 1h, 2h, 4h, 6h, 8h, 10h, 12h and 24h. Each PK sample contained 2 mL of blood, resulting in a total of […] blood drawn for PK purposes. The plasma sample was immediately stored at -80°C after sampling.
Plasma samples were analyzed after immunoaffinity extraction followed by liquid chromatography mass spectrometry (LC-MS/MS). For each patient plasma concentrations were used for calculation of the pharmacokinetic parameters using the non-compartmental approach in Excel. Plasma terminal elimination half-life (T½) was determined as In(2)/ke where ke is the magnitude of the slope of the log linear regression of the log concentration versus time profile during the terminal phase.

[2] = Phase 1 trial, PK profile of glepaglutide after SC injections in healthy subjects; type: in vivo, human; details: individual subjects; for Half-life of ZP2469 in the interval from 72 to 168 hours post dose: final data; for Half-life ZP2469: preliminary data
Protocol: A Phase 1 clinical trial to characterize the pharmacokinetic (PK) profiles of glepaglutide (ZP1848) and its primary active metabolites following once-weekly and once daily subcutaneous (SC) injections and after a single intravenous (IV) infusion in healthy subjects was conducted. This included evaluating the pharmacodynamic effects on plasma citrulline levels following SC dosing in healthy subjects. The trial confirmed the feasibility of dosage regimes in which GLP-2 analogues are administered to patients in weekly dosage regimes and compare weekly dosage regimes with daily dosing.
The trial design was a single-center, open-label, partially randomized, 3-part, parallel group trial to characterize the PK profile of glepaglutide administered by SC injection once daily for 7 days (Part 1), SC injection once weekly for 6 weeks (Part 2), and as a single IV infusion (Part 3) in healthy subjects.
Glepaglutide was supplied as an aqueous solution at concentrations of 2 and 10 mg/mL. • Group A: 1 mg glepaglutide once daily, given as single SC injections on Days 1 to 7. • Group B: 5 mg glepaglutide once daily, given as single SC injections on Days 1 to 7. • Group C: 5 mg glepaglutide once weekly, given as single SC injections on Days 1, 8, 15, 22, 29, and 36. • Group D: 10 mg glepaglutide once weekly, given as single SC injections on Days 1, 8, 15, 22, 29, and 36. • Group E: 1 mg glepaglutide, given as an IV infusion at a rate of 4 mg/h for 15 minutes on Day 1.
Blood samples were collected for the analysis of plasma concentrations of glepaglutide and its primary active metabolites, ZP2469 (ZP18481-34) and ZP2711 (ZP18481-35); samples were assayed using validated analytical methods. The following PK parameter estimates were calculated using standard non-compartmental methods: terminal elimination half-life (t1/2), total body clearance of drug after IV administration (CL; IV dose, parent drug only), apparent total clearance (CL/F; SC doses, parent drug only), volume of distribution at steady state (Vss; IV dose, parent drug only), apparent volume of distribution at steady state (Vss/F; SC doses, parent drug only), volume of distribution (Vz; IV dose, parent drug only), apparent volume of distribution (Vz/F; SC doses, parent drug only), maximum observed plasma concentration (Cmax), area under the plasma concentration-time curve (AUC) over a dosing interval (AUCT), AUC from time zero to infinity (AUCinf), AUC from time zero to the time of the last measurable concentration (AUClast), and time of the maximum observed plasma concentration (tmax). Metabolite exposure (based on Cmax, AUCT, and AUCinf) were determined for each group as a ratio of the 2 primary active metabolites, ZP2469 (ZP18481-34) and ZP2711 (ZP18481-35), relative to the glepaglutide parent drug.
The PK parameters estimates for glepaglutide, ZP2469 (ZP18481-34), and ZP2711 (ZP18481-35) were listed and summarized using standard descriptive statistics. The primary PK parameters are t1/2 for glepaglutide, ZP2469 (ZP18481-34), and ZP2711 (ZP18481-35); and CL (IV dose), CL/F (SC doses), Vss (IV dose), Vss/F (SC dose), Vz (IV dose), and Vz/F (SC doses) for glepaglutide. The half-life is calculated as LN(2)/ke where ÷ke is estimate from the slope of the terminal part of the LN(concentration) versus time curve, with repeats regressions of LN(concentration) values using the last three points with non-zero concentrations, then the last four points, last five points, etc. Points with a concentration value of zero are not included. Points prior to Cmax are not used. […] 2) ke must be calculated from at least three data points. 3) The estimated slope must be negative, so that its negative ke is positive. The results of the calculations carried out with preliminary data are shown in Table 4, while the results of the calculations with the complete final data set are shonw in Table 5. […]

Substance: H-HGEGTFSSELATILDALAARDFIAWLIATKITDK-OH [ZP2469]
- plasma level ([1]; in words, relative to ZP1848 after administration of ZP1848): multiple times higher than that of ZP1848
- Conc. ([1]; Day 0 (visit 11 or 25, treatment balance study), ZP1848 SC once daily, individual subjects): 2.22 nM and 0.556 nM and 3.64 nM and 4.75 nM and 4.66 nM and 4.49 nM and 1.04 nM and 14.7 nM and 6.77 nM and 4.34 nM and 4.94 nM
- Conc. ([1]; Day 28-56 (visit 17 or 29, after wash-out/follow-up), individual subjects): 0.394 nM and 0.0528 nM and 0.0564 nM and 0.288 nM and 0.236 nM and 0.195 nM and 0.133 nM and 0.209 nM and 0.46 nM and 0.116 nM and 0.112 nM
- Half-life ([1]; terminal, from Day 0 and wash-out/follow-up concentrations, individual subjects): 5.2 days and 7.9 days and 8.7 days (2×) and 11 days (2×) and 7.2 days (2×) and 12 days and 9.5 days and 9.6 days
- Half-life of ZP2469 in the interval from 72 to 168 hours post dose ([2]; Group A, 1 mg once daily, after 7 doses): 75 h and 87 h and 80 h and 54 h and 57 h
- Half-life of ZP2469 in the interval from 72 to 168 hours post dose ([2]; Group B, 5 mg once daily, after 7 doses): 168 hr and 77 hr and 101 hr (2×) and 53 hr and 34 hr and 46 hr and 100 hr and 40 hr and 84 hr and 50 hr and 42 hr
- Half-life of ZP2469 in the interval from 72 to 168 hours post dose ([2]; Group C, 5 mg once weekly, after 1 dose): 329 hr and 41 hr and 38 hr and 48 hr (2×) and 59 hr and 61 hr and 217 hr and 45 hr and 39 hr and 91 hr and 75 hr
- Half-life of ZP2469 in the interval from 72 to 168 hours post dose ([2]; Group C, 5 mg once weekly, after 6 doses): 26 h and 35 h and 59 h and 75 h and 57 h and 43 h and 52 h and 107 h and 33 h and 68 h and 47 h and 65 h and 452 h
- Half-life of ZP2469 in the interval from 72 to 168 hours post dose ([2]; Group D, 10 mg once weekly, after 1 dose): 66 hr and 54 hr and 120 hr and 36 hr and 46 hr and 35 hr and 60 hr and 26 hr and 158 hr and 53 hr and 43 hr (2×) and 33 hr and 45 hr and 38 hr
- Half-life of ZP2469 in the interval from 72 to 168 hours post dose ([2]; Group D, 10 mg once weekly, after 6 doses): 60 hr (2×) and 55 hr and 74 hr and 58 hr and 70 hr and 59 hr and 30 hr and 102 hr and 53 hr and 42 hr and 48 hr and 56 hr and 17 hr
- Half-life ZP2469 ([2]; Group A, 1 mg glepaglutide SC once daily, after 7 doses): 20 h and 95 h and 76 h and 36 h and 33 h and 87 h
- Half-life ZP2469 ([2]; Group B, 5 mg glepaglutide SC once daily, after 7 doses): 75 h and 108 h and 209 h and 59 h and 139 h and 94 h
- Half-life ZP2469 ([2]; Group C, 5 mg glepaglutide SC once weekly, after 1 dose): 38 hr (2×) and 100 hr and 17 hr and 48 hr and 20 hr
- Half-life ZP2469 ([2]; Group C, 5 mg glepaglutide SC once weekly, after 6 doses): 11 h and 17 h and 16 h and 32 h and 40 h and 22 h
- Half-life ZP2469 ([2]; Group D, 10 mg glepaglutide SC once weekly, after 1 dose): 52 h and 38 h and 43 h and 34 h
- Half-life ZP2469 ([2]; Group D, 10 mg glepaglutide SC once weekly, after 6 doses): 60 h and 55 h and 74 h and 34 h and 58 h

— patent publication EP4796171A2 (Zealand Pharma A/S, priority 2017, dated 2018)
